# pIC50: −log10 of the molar value.
# Columns and labels:
# [1] = molecular target: DNA gyrase subunit B (Staphylococcus aureus, UniProt P0A0K8)
# Description: Inhibition of Staphylococcus aureus DNA gyrase B ATP binding site assessed as reduction in supercoiling of relaxed pNO1 DNA after 30 mins in presence of biotinylated oligonucleotide by sybrGOLD staining based fluorescence assay
# [2] = molecular target: DNA gyrase subunit B (Escherichia coli, UniProt P0AES6)
# Description: Inhibition of Escherichia coli DNA gyrase B ATP binding site assessed as reduction in supercoiling of relaxed pNO1 DNA after 30 mins in presence of biotinylated oligonucleotide by sybrGOLD staining based fluorescence assay
# [3] = test system: Enterococcus faecalis; experiment: microbe, parasite or virus in culture; conditions: ATCC 29212, 24 h, read-out: GI
# Description: Growth inhibition of Enterococcus faecalis ATCC 29212 at 50 uM after 24 hrs by broth microdilution method
# [4] = test system: Escherichia coli; experiment: Growth inhibition of Escherichia coli ATCC 25922 at 50 uM after 24 hrs by broth microdilution method; assay type: functional; conditions: ATCC 25922, 24 h, read-out: GI
# [5] = test system: Pseudomonas aeruginosa; experiment: Growth inhibition of Pseudomonas aeruginosa ATCC 27853 at 50 uM after 24 hrs by broth microdilution method; assay type: functional; conditions: ATCC 27853, 24 h, read-out: GI
# [6] = test system: Escherichia coli; experiment: Antibacterial activity against wild type Escherichia coli ECM1194 by broth microdilution method; assay type: functional
# [7] = test system: Escherichia coli; experiment: Antibacterial activity against Escherichia coli ECM1194 lacking tolC gene by broth microdilution method; assay type: functional
Compound,pIC50 [1],pIC50 [2],other results
COC(=O)CC(=O)Nc1nc2ccc(NC(=O)c3cc(Br)c(Br)[nH]3)cc2s1,< 4.00,6.62,
O=C(O)CCC(=O)Nc1ccc2nc(NC(=O)c3cc(Br)c(Br)[nH]3)sc2c1,< 4.00,7.48,
COC(=O)CCC(=O)Nc1nc2ccc(NC(=O)c3cc(Br)c(Br)[nH]3)cc2s1,< 4.00,6.06,
O=C(O)CCC(=O)Nc1ccc2nc(NC(=O)c3cc(Cl)c(Cl)[nH]3)sc2c1,4.03,6.37,
COC(=O)CC(=O)Nc1ccc2nc(NC(=O)c3cc(Cl)c(Cl)[nH]3)sc2c1,< 4.00,6.66,
COC(=O)CCC(=O)Nc1ccc2nc(NC(=O)c3cc(Br)c(Br)[nH]3)sc2c1,< 4.00,5.15,
CCOC(=O)C(=O)Nc1ccc2nc(NC(=O)c3cc(Br)c(Br)[nH]3)sc2c1,< 4.00,4.54,
CCOC(=O)C(=O)Nc1nc2ccc(NC(=O)c3cc(Br)c(Br)[nH]3)cc2s1,< 4.00,7.09,
Nc1ccc2nc(NC(=O)c3cc(Br)c(Br)[nH]3)sc2c1,< 4.00,5.70,
COC(=O)CC(=O)Nc1ccc2nc(NC(=O)c3cc(Br)c(Br)[nH]3)sc2c1,< 4.00,5.70,
CCOC(=O)C(=O)Nc1ccc2nc(NC(=O)c3cc(Cl)c(Cl)[nH]3)sc2c1,< 4.00,< 4.00,
O=C(O)CCC(=O)Nc1nc2ccc(NC(=O)c3cc(Br)c(Br)[nH]3)cc2s1,< 4.00,7.24,

# Second part, led by results:
pIC50 [1],pIC50 [2],Compound,other results
< 4.00,7.42,O=C(O)C(=O)Nc1nc2ccc(NC(=O)c3cc(Br)c(Br)[nH]3)cc2s1,
5.07,6.92,O=C(O)CC(=O)Nc1ccc2nc(NC(=O)c3cc(Cl)c(Cl)[nH]3)sc2c1,
< 4.00,5.74,CCOC(=O)C(=O)Nc1nc2ccc(NC(=O)c3cc(Cl)c(Cl)[nH]3)cc2s1,inhibition of growth at 50 µM [3]: 47%
6.29,,O=C(O)C(=O)Nc1ccc2nc(NC(=O)c3cc(Cl)c(Cl)[nH]3)sc2c1,
5.25,6.85,O=C(O)CC(=O)Nc1ccc2nc(NC(=O)c3cc(Br)c(Br)[nH]3)sc2c1,inhibition of growth at 50 µM [4]: 12%; inhibition of growth at 50 µM [5]: 11%; MIC [6]: > 256 µg/mL; MIC [7]: < 16 µg/mL; inhibition of growth at 50 µM [3]: 59%
< 4.00,4.46,COC(=O)CCC(=O)Nc1ccc2nc(NC(=O)c3cc(Cl)c(Cl)[nH]3)sc2c1,
< 4.00,5.10,COC(=O)CC(=O)Nc1nc2ccc(NC(=O)c3cc(Cl)c(Cl)[nH]3)cc2s1,
< 4.00,< 4.00,Nc1ccc2nc(NC(=O)c3cc(Cl)c(Cl)[nH]3)sc2c1,
